Results reported in patent publication US11078170B2 (Assembly Biosciences, Inc., priority 2017, dated 2021).

Test system: HBV viral production from HepAD38 cells
Test: Activity of test compounds on viral production from HepAD38 cells (viral load by qPCR of HBV core sequence in supernatant)
Format: cell-based
Settings: Hepatitis B virus, 120 h, 5 days incubation, HBV DNA in supernatant by qPCR, top concentration 10 μM, read-out: Viral Load EC50 Activity range
Summary of the method: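 EC50 and CC50 come from four-parameter fits of supernatant viral load and CellTiter-Glo viability, respectively. Viral load was measured by core-region TaqMan qPCR against HBV DNA standards and compared with DMSO controls. Tet-free HepAD38 cells (50,000/well, 2% FBS) were exposed to compound, highest 10 μM, for 5 days at 37° C.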

Row | Compound | EC50
1 | CN1C(C(=O)Nc2ccc(F)c(Cl)c2)CC(c2cc(-c3ccc(F)cn3)cs2)NS1(=O)=O (racemic) [HBV-CSU-243, Cis-N-(3-chloro-4-fluorophenyl)-5-(4-(5-fluoropyridin-2-yl)thiophen-2-yl)-2-methyl-1,2,6-thiadiazinane-3-carboxamide 1,1-dioxide] | < 1000 nM
2 | CN1C(C(=O)Nc2ccc(F)c(Cl)c2)CC(c2ccc(-c3cnn(C)c3)cc2)NS1(=O)=O (racemic) [HBV-CSU-246, Cis-N-(3-Chloro-4-fluorophenyl)-2-methyl-5-(4-(1-methyl-1H-pyrazol-4-yl)phenyl)-1,2,6-thiadiazinane-3-carboxamide 1,1-dioxide] | < 1000 nM
3 | CN1C(C(=O)Nc2ccc(F)c(Cl)c2)CC(c2cccc(-c3cnn(C)c3)c2)NS1(=O)=O (racemic) [HBV-CSU-247, Cis-N-(3-chloro-4-fluorophenyl)-2-methyl-5-(3-(1-methyl-1H-pyrazol-4-yl)phenyl)-1,2,6-thiadiazinane-3-carboxamide 1,1-dioxide] | < 1000 nM
4 | CN1C(C(=O)Nc2ccc(F)c(Cl)c2)CC(c2ncc(-c3ccc(F)cc3)s2)NS1(=O)=O (racemic) [HBV-CSU-248, Cis-N-(3-Chloro-4-fluorophenyl)-5-(5-(4-fluorophenyl)thiazol-2-yl)-2-methyl-1,2,6-thiadiazinane-3-carboxamide 1,1-dioxide] | < 1000 nM
5 | COc1ccc(-c2cnc(C3CC(C(=O)Nc4ccc(F)c(Cl)c4)N(C)S(=O)(=O)N3)s2)cc1 (racemic) [HBV-CSU-250, Cis-N-(3-Chloro-4-fluorophenyl)-5-(5-(4-methoxyphenyl)thiazol-2-yl)-2-methyl-1,2,6-thiadiazinane-3-carboxamide 1,1-dioxide] | < 1000 nM
6 | CN1C(C(=O)Nc2ccc(F)c(Cl)c2)CC(c2ncc(-c3ccc(F)cn3)s2)NS1(=O)=O (racemic) [HBV-CSU-252, Cis-N-(3-Chloro-4-fluorophenyl)-5-(5-(5-fluoropyridin-2-yl)thiazol-2-yl)-2-methyl-1,2,6-thiadiazinane-3-carboxamide 1,1-dioxide] | < 1000 nM
7 | CN1C(C(=O)Nc2ccc(F)c(Cl)c2)CC(c2ncc(-c3cn[nH]c3)s2)NS1(=O)=O (racemic) [HBV-CSU-254, Cis-5-(5-(1H-pyrazol-4-yl)thiazol-2-yl)-N-(3-chloro-4-fluorophenyl)-2-methyl-1,2,6-thiadiazinane-3-carboxamide 1,1-dioxide] | < 1000 nM
8 | CN1C(C(=O)Nc2ccc(F)c(Br)c2)CC(c2cc(Br)cs2)NS1(=O)=O (racemic) [HBV-CSU-258, Cis-N-(3-Bromo-4-fluorophenyl)-5-(4-bromothiophen-2-yl)-2-methyl-1,2,6-thiadiazinane-3-carboxamide 1,1-dioxide] | < 1000 nM
9 | CN1C(C(=O)Nc2ccc(F)c(Cl)c2)CC(c2cccc(Cl)c2)NS1(=O)=O (racemic) [HBV-CSU-261, Cis-N-(3-Chloro-4-fluorophenyl)-5-(3-chlorophenyl)-2-methyl-1,2,6-thiadiazinane-3-carboxamide 1,1-dioxide] | < 1000 nM
10 | CN1C(C(=O)Nc2ccc(F)c(Cl)c2)CC(c2cccc(OC(F)(F)F)c2)NS1(=O)=O (racemic) [HBV-CSU-262, Cis-N-(3-Chloro-4-fluorophenyl)-2-methyl-5-(3-(trifluoromethoxy)phenyl)-1,2,6-thiadiazinane-3-carboxamide 1,1-dioxide] | < 1000 nM
11 | CN1C(C(=O)Nc2ccc(F)c(Cl)c2)CC(c2ccc(OC(F)F)cc2)NS1(=O)=O (racemic) [HBV-CSU-263, Cis-N-(3-Chloro-4-fluorophenyl)-5-(4-(difluoromethoxy)phenyl)-2-methyl-1,2,6-thiadiazinane-3-carboxamide 1,1-dioxide] | < 1000 nM
12 | CN1C(C(=O)Nc2ccc(F)c(Cl)c2)CC(c2cccc(OC(F)F)c2)NS1(=O)=O (racemic) [HBV-CSU-264, Cis-N-(3-chloro-4-fluorophenyl)-5-(3-(difluoromethoxy)phenyl)-2-methyl-1,2,6-thiadiazinane-3-carboxamide 1,1-dioxide] | < 1000 nM
13 | CN1C(C(=O)Nc2ccc(F)c(Cl)c2)CC(c2ccc(-c3cn(C)cn3)s2)NS1(=O)=O (racemic) [HBV-CSU-266, Cis-N-(3-Chloro-4-fluorophenyl)-2-methyl-5-(5-(1-methyl-1H-imidazol-4-yl)thiophen-2-yl)-1,2,6-thiadiazinane-3-carboxamide 1,1-dioxide] | < 1000 nM
14 | CN1C(C(=O)Nc2ccc(F)c(Cl)c2)CC(c2ccc(-c3cncn3C)s2)NS1(=O)=O (racemic) [HBV-CSU-267, Cis-N-(3-Chloro-4-fluorophenyl)-2-methyl-5-(5-(1-methyl-1H-imidazol-5-yl)thiophen-2-yl)-1,2,6-thiadiazinane-3-carboxamide 1,1-dioxide] | < 1000 nM
15 | CN1C(C(=O)Nc2ccc(F)c(Cl)c2)CC(c2ccc(-c3cncs3)s2)NS1(=O)=O (racemic) [HBV-CSU-268, Cis-N-(3-Chloro-4-fluorophenyl)-2-methyl-5-(5-(thiazol-5-yl)thiophen-2-yl)-1,2,6-thiadiazinane-3-carboxamide 1,1-dioxide] | < 1000 nM
16 | CN1C(C(=O)Nc2ccc(F)c(Cl)c2)CC(c2ccc(-c3cnco3)s2)NS1(=O)=O (racemic) [HBV-CSU-269, Cis-N-(3-Chloro-4-fluorophenyl)-2-methyl-5-(5-(oxazol-5-yl)thiophen-2-yl)-1,2,6-thiadiazinane-3-carboxamide 1,1-dioxide] | < 1000 nM
17 | CN1C(C(=O)Nc2ccc(F)c(Cl)c2)CC(c2ccc(-c3ccnn3C)s2)NS1(=O)=O (racemic) [HBV-CSU-271, Cis-N-(3-chloro-4-fluorophenyl)-2-methyl-5-(5-(1-methyl-1H-pyrazol-5-yl)thiophen-2-yl)-1,2,6-thiadiazinane-3-carboxamide 1,1-dioxide] | < 1000 nM
18 | CN1C(C(=O)Nc2ccc(F)c(Cl)c2)CC(c2ccc(-c3cncnc3)s2)NS1(=O)=O (racemic) [HBV-CSU-272, Cis-N-(3-chloro-4-fluorophenyl)-2-methyl-5-(5-(pyrimidin-5-yl)thiophen-2-yl)-1,2,6-thiadiazinane-3-carboxamide 1,1-dioxide] | < 1000 nM
19 | CN1C(C(=O)Nc2ccc(F)c(Cl)c2)CC(c2ncc(-c3cn(C)cn3)s2)NS1(=O)=O (racemic) [HBV-CSU-276, Cis-N-(3-Chloro-4-fluorophenyl)-2-methyl-5-(5-(1-methyl-1H-imidazol-4-yl)thiazol-2-yl)-1,2,6-thiadiazinane-3-carboxamide 1,1-dioxide] | < 1000 nM
20 | CN1C(C(=O)Nc2ccc(F)c(Cl)c2)CC(c2ncc(-c3cncn3C)s2)NS1(=O)=O (racemic) [HBV-CSU-277, Cis-N-(3-Chloro-4-fluorophenyl)-2-methyl-5-(5-(1-methyl-1H-imidazol-5-yl)thiazol-2-yl)-1,2,6-thiadiazinane-3-carboxamide 1,1-dioxide] | < 1000 nM
21 | CN1C(C(=O)Nc2ccc(F)c(Cl)c2)CC(c2ncc(-c3cncs3)s2)NS1(=O)=O (racemic) [HBV-CSU-278, Cis-5-([5,5′-Bithiazol]-2-yl)-N-(3-chloro-4-fluorophenyl)-2-methyl-1,2,6-thiadiazinane-3-carboxamide 1,1-dioxide] | < 1000 nM
22 | CN1C(C(=O)Nc2ccc(F)c(Cl)c2)CC(c2ncc(-c3ccn(C)n3)s2)NS1(=O)=O (racemic) [HBV-CSU-280, Cis-N-(3-Chloro-4-fluorophenyl)-2-methyl-5-(5-(1-methyl-1H-pyrazol-3-yl)thiazol-2-yl)-1,2,6-thiadiazinane-3-carboxamide 1,1-dioxide] | < 1000 nM
23 | CN1C(C(=O)Nc2ccc(F)c(Cl)c2)CC(c2ncc(-c3ccnn3C)s2)NS1(=O)=O (racemic) [HBV-CSU-281, Cis-N-(3-Chloro-4-fluorophenyl)-2-methyl-5-(5-(1-methyl-1H-pyrazol-5-yl)thiazol-2-yl)-1,2,6-thiadiazinane-3-carboxamide 1,1-dioxide] | < 1000 nM
24 | CN1C(C(=O)Nc2ccc(F)c(Cl)c2)CC(c2cc(-c3cncn3C)cs2)NS1(=O)=O (racemic) [HBV-CSU-285, Cis-N-(3-Chloro-4-fluorophenyl)-2-methyl-5-(4-(1-methyl-1H-imidazol-5-yl)thiophen-2-yl)-1,2,6-thiadiazinane-3-carboxamide 1,1-dioxide] | < 1000 nM
25 | CN1C(C(=O)Nc2ccc(F)c(Cl)c2)CC(c2cc(-c3cncs3)cs2)NS1(=O)=O (racemic) [HBV-CSU-286, Cis-N-(3-Chloro-4-fluorophenyl)-2-methyl-5-(4-(thiazol-5-yl)thiophen-2-yl)-1,2,6-thiadiazinane-3-carboxamide 1,1-dioxide] | < 1000 nM
26 | CN1C(C(=O)Nc2ccc(F)c(Cl)c2)CC(c2cc(-c3ccn(C)n3)cs2)NS1(=O)=O (racemic) [HBV-CSU-288, Cis-N-(3-Chloro-4-fluorophenyl)-2-methyl-5-(4-(1-methyl-1H-pyrazol-3-yl)thiophen-2-yl)-1,2,6-thiadiazinane-3-carboxamide 1,1-dioxide] | < 1000 nM
27 | CN1C(C(=O)Nc2ccc(F)c(Cl)c2)CC(c2cc(-c3ccnn3C)cs2)NS1(=O)=O (racemic) [HBV-CSU-289, Cis-N-(3-chloro-4-fluorophenyl)-2-methyl-5-(4-(1-methyl-1H-pyrazol-5-yl)thiophen-2-yl)-1,2,6-thiadiazinane-3-carboxamide 1,1-dioxide] | < 1000 nM
28 | CN1C(C(=O)Nc2ccc(F)c(Cl)c2)CC(c2cc(-c3cncnc3)cs2)NS1(=O)=O (racemic) [HBV-CSU-290, Cis-N-(3-chloro-4-fluorophenyl)-2-methyl-5-(4-(pyrimidin-5-yl)thiophen-2-yl)-1,2,6-thiadiazinane-3-carboxamide 1,1-dioxide] | < 1000 nM
29 | CCn1cc(-c2ccc(C3CC(C(=O)Nc4ccc(F)c(Cl)c4)N(C)S(=O)(=O)N3)s2)cn1 (racemic) [HBV-CSU-291, Cis-N-(3-chloro-4-fluorophenyl)-5-(5-(1-ethyl-1H-pyrazol-4-yl)thiophen-2-yl)-2-methyl-1,2,6-thiadiazinane-3-carboxamide 1,1-dioxide] | < 1000 nM
